From the NIST ThermoML archive (doi:10.1016/j.fluid.2005.08.001)
± gives the expanded uncertainty stated by the source.

Assays:
[1] = 298.15 K; 101.33 kPa; Liquid
[2] = excess molar enthalpy (molar enthalpy of mixing); xn = mol fraction of the nth substance listed; conditions: 298.15 K, 101.33 kPa, Liquid, Flow calorimetry

Compound `CCCCO` [butan-1-ol] has a mass density [1] of 805.74 ± 0.35 kg/m3.
In the case of `CCO` [ethanol], the mass density [1] is reported as 785.07 ± 0.33 kg/m3.
In the case of `CCCCCC` [hexane], the mass density [1] is reported as 654.9 ± 0.47 kg/m3.
With `CCCCCC` [hexane] + CCCCO the excess molar enthalpy ([2]; x2 = 0.0199) was 0.0527 ± 0.00167 kcal/mol, the excess molar enthalpy ([2]; x2 = 0.0399) was 0.0685 ± 0.00215 kcal/mol and the excess molar enthalpy ([2]; x2 = 0.05) was 0.0738 ± 0.00232 kcal/mol. The excess molar enthalpy ([2]; x2 = 0.06) was 0.0783 ± 0.00239 kcal/mol, the excess molar enthalpy ([2]; x2 = 0.0799) was 0.087 ± 0.00263 kcal/mol and the excess molar enthalpy ([2]; x2 = 0.0999) was 0.0943 ± 0.00287 kcal/mol. It also gave an excess molar enthalpy ([2]; x2 = 0.1499) of 0.11 ± 0.00335 kcal/mol, an excess molar enthalpy ([2]; x2 = 0.2) of 0.123 ± 0.00382 kcal/mol and an excess molar enthalpy ([2]; x2 = 0.25) of 0.129 ± 0.00406 kcal/mol. For the same compound, the excess molar enthalpy ([2]; x2 = 0.2999) was 0.133 ± 0.00406 kcal/mol, the excess molar enthalpy ([2]; x2 = 0.35) was 0.134 ± 0.00406 kcal/mol and the excess molar enthalpy ([2]; x2 = 0.4001) was 0.131 ± 0.00406 kcal/mol. For the same compound, the excess molar enthalpy ([2]; x2 = 0.4501) was 0.126 ± 0.00406 kcal/mol, the excess molar enthalpy ([2]; x2 = 0.5) was 0.12 ± 0.00382 kcal/mol and the excess molar enthalpy ([2]; x2 = 0.55) was 0.112 ± 0.00359 kcal/mol. The excess molar enthalpy ([2]; x2 = 0.6001) was 0.102 ± 0.00311 kcal/mol, the excess molar enthalpy ([2]; x2 = 0.6501) was 0.0909 ± 0.00287 kcal/mol and the excess molar enthalpy ([2]; x2 = 0.7) was 0.0788 ± 0.00239 kcal/mol. It also gave an excess molar enthalpy ([2]; x2 = 0.7501) of 0.0665 ± 0.0021 kcal/mol, an excess molar enthalpy ([2]; x2 = 0.7999) of 0.0535 ± 0.0017 kcal/mol and an excess molar enthalpy ([2]; x2 = 0.85) of 0.0399 ± 0.00127 kcal/mol. The excess molar enthalpy ([2]; x2 = 0.8999) was 0.0261 ± 0.00086 kcal/mol and the excess molar enthalpy ([2]; x2 = 0.95) was 0.011 ± 0.00055 kcal/mol.
`CCCCCC` [hexane] + CCO gave an excess molar enthalpy ([2]; x2 = 0.0544) of 0.0669 ± 0.0021 kcal/mol, an excess molar enthalpy ([2]; x2 = 0.1056) of 0.0992 ± 0.00311 kcal/mol and an excess molar enthalpy ([2]; x2 = 0.1538) of 0.115 ± 0.00359 kcal/mol. For the same compound, the excess molar enthalpy ([2]; x2 = 0.1994) was 0.126 ± 0.00382 kcal/mol, the excess molar enthalpy ([2]; x2 = 0.2426) was 0.132 ± 0.00406 kcal/mol and the excess molar enthalpy ([2]; x2 = 0.2835) was 0.136 ± 0.0043 kcal/mol. It also gave an excess molar enthalpy ([2]; x2 = 0.3592) of 0.139 ± 0.0043 kcal/mol, an excess molar enthalpy ([2]; x2 = 0.4277) of 0.136 ± 0.0043 kcal/mol and an excess molar enthalpy ([2]; x2 = 0.4596) of 0.134 ± 0.0043 kcal/mol. For the same compound, the excess molar enthalpy ([2]; x2 = 0.49) was 0.135 ± 0.0043 kcal/mol, the excess molar enthalpy ([2]; x2 = 0.5191) was 0.133 ± 0.00406 kcal/mol and the excess molar enthalpy ([2]; x2 = 0.5992) was 0.122 ± 0.00382 kcal/mol. For the same compound, the excess molar enthalpy ([2]; x2 = 0.6472) was 0.116 ± 0.00359 kcal/mol, the excess molar enthalpy ([2]; x2 = 0.7125) was 0.106 ± 0.00335 kcal/mol and the excess molar enthalpy ([2]; x2 = 0.8064) was 0.0848 ± 0.00263 kcal/mol. The excess molar enthalpy ([2]; x2 = 0.8997) was 0.0535 ± 0.0017 kcal/mol and the excess molar enthalpy ([2]; x2 = 0.9528) was 0.0291 ± 0.000956 kcal/mol.
For `CCN(CC)CC` [triethylamine], the mass density [1] was 722.56 ± 0.41 kg/m3.
For `CCN(CC)CC` [triethylamine] + CCCCCC, the excess molar enthalpy ([2]; x1 = 0.025) was 0.00134 ± 0.000502 kcal/mol, the excess molar enthalpy ([2]; x1 = 0.05) was 0.00368 ± 0.000526 kcal/mol and the excess molar enthalpy ([2]; x1 = 0.075) was 0.00468 ± 0.000526 kcal/mol. The excess molar enthalpy ([2]; x1 = 0.1) was 0.007 ± 0.000526 kcal/mol, the excess molar enthalpy ([2]; x1 = 0.15) was 0.0104 ± 0.000526 kcal/mol and the excess molar enthalpy ([2]; x1 = 0.2) was 0.013 ± 0.00055 kcal/mol. It also gave an excess molar enthalpy ([2]; x1 = 0.25) of 0.0152 ± 0.00055 kcal/mol, an excess molar enthalpy ([2]; x1 = 0.3) of 0.0168 ± 0.000574 kcal/mol and an excess molar enthalpy ([2]; x1 = 0.35) of 0.0182 ± 0.000621 kcal/mol. It also gave an excess molar enthalpy ([2]; x1 = 0.4) of 0.019 ± 0.000645 kcal/mol, an excess molar enthalpy ([2]; x1 = 0.45) of 0.0193 ± 0.000645 kcal/mol and an excess molar enthalpy ([2]; x1 = 0.5) of 0.0196 ± 0.000669 kcal/mol. For the same compound, the excess molar enthalpy ([2]; x1 = 0.6) was 0.019 ± 0.000645 kcal/mol, the excess molar enthalpy ([2]; x1 = 0.65) was 0.0173 ± 0.000598 kcal/mol and the excess molar enthalpy ([2]; x1 = 0.7) was 0.0162 ± 0.000574 kcal/mol. The excess molar enthalpy ([2]; x1 = 0.75) was 0.0139 ± 0.00055 kcal/mol, the excess molar enthalpy ([2]; x1 = 0.8) was 0.0122 ± 0.00055 kcal/mol and the excess molar enthalpy ([2]; x1 = 0.85) was 0.00927 ± 0.000526 kcal/mol. It also gave an excess molar enthalpy ([2]; x1 = 0.9) of 0.00667 ± 0.000526 kcal/mol and an excess molar enthalpy ([2]; x1 = 0.95) of 0.00323 ± 0.000526 kcal/mol.
Work on `CCN(CC)CC` [triethylamine] + CCCCO yielded an excess molar enthalpy ([2]; x2 = 0.0501) of -0.0212 ± 0.000717 kcal/mol, an excess molar enthalpy ([2]; x2 = 0.1) of -0.0787 ± 0.00239 kcal/mol and an excess molar enthalpy ([2]; x2 = 0.1502) of -0.13 ± 0.00406 kcal/mol. The excess molar enthalpy ([2]; x2 = 0.1999) was -0.156 ± 0.00478 kcal/mol, the excess molar enthalpy ([2]; x2 = 0.2536) was -0.196 ± 0.00598 kcal/mol and the excess molar enthalpy ([2]; x2 = 0.3001) was -0.228 ± 0.00717 kcal/mol. The excess molar enthalpy ([2]; x2 = 0.3499) was -0.266 ± 0.00813 kcal/mol, the excess molar enthalpy ([2]; x2 = 0.3999) was -0.282 ± 0.00884 kcal/mol and the excess molar enthalpy ([2]; x2 = 0.4499) was -0.304 ± 0.00932 kcal/mol. It also gave an excess molar enthalpy ([2]; x2 = 0.5) of -0.322 ± 0.01 kcal/mol, an excess molar enthalpy ([2]; x2 = 0.5499) of -0.331 ± 0.0103 kcal/mol and an excess molar enthalpy ([2]; x2 = 0.5999) of -0.336 ± 0.0103 kcal/mol. The excess molar enthalpy ([2]; x2 = 0.6499) was -0.33 ± 0.0103 kcal/mol, the excess molar enthalpy ([2]; x2 = 0.7001) was -0.315 ± 0.0098 kcal/mol and the excess molar enthalpy ([2]; x2 = 0.7501) was -0.292 ± 0.00908 kcal/mol. The excess molar enthalpy ([2]; x2 = 0.7999) was -0.259 ± 0.00813 kcal/mol, the excess molar enthalpy ([2]; x2 = 0.85) was -0.219 ± 0.00669 kcal/mol and the excess molar enthalpy ([2]; x2 = 0.8999) was -0.166 ± 0.00502 kcal/mol. The excess molar enthalpy ([2]; x2 = 0.9499) was -0.0879 ± 0.00263 kcal/mol and the excess molar enthalpy ([2]; x2 = 0.9792) was -0.0411 ± 0.00131 kcal/mol.
In the case of `CCN(CC)CC` [triethylamine] + CCO, the excess molar enthalpy ([2]; x2 = 0.1116) is reported as -0.0893 ± 0.00287 kcal/mol, the excess molar enthalpy ([2]; x2 = 0.1621) is reported as -0.134 ± 0.0043 kcal/mol and the excess molar enthalpy ([2]; x2 = 0.2096) is reported as -0.163 ± 0.00502 kcal/mol. The excess molar enthalpy ([2]; x2 = 0.2542) was -0.197 ± 0.00598 kcal/mol, the excess molar enthalpy ([2]; x2 = 0.2963) was -0.225 ± 0.00693 kcal/mol and the excess molar enthalpy ([2]; x2 = 0.3361) was -0.243 ± 0.00765 kcal/mol. The excess molar enthalpy ([2]; x2 = 0.4093) was -0.285 ± 0.00884 kcal/mol, the excess molar enthalpy ([2]; x2 = 0.5056) was -0.319 ± 0.0098 kcal/mol and the excess molar enthalpy ([2]; x2 = 0.5623) was -0.329 ± 0.0103 kcal/mol. The excess molar enthalpy ([2]; x2 = 0.614) was -0.33 ± 0.0103 kcal/mol, the excess molar enthalpy ([2]; x2 = 0.7047) was -0.313 ± 0.0098 kcal/mol and the excess molar enthalpy ([2]; x2 = 0.7991) was -0.262 ± 0.00813 kcal/mol. For the same compound, the excess molar enthalpy ([2]; x2 = 0.8477) was -0.219 ± 0.00693 kcal/mol, the excess molar enthalpy ([2]; x2 = 0.8774) was -0.187 ± 0.00574 kcal/mol and the excess molar enthalpy ([2]; x2 = 0.9052) was -0.153 ± 0.00478 kcal/mol. It also gave an excess molar enthalpy ([2]; x2 = 0.9311) of -0.116 ± 0.00359 kcal/mol and an excess molar enthalpy ([2]; x2 = 0.9555) of -0.0767 ± 0.00239 kcal/mol.
